Test results published in article PMC13600255 (Journal of the American Chemical Society, 2025).
Where “and” joins values, the source holds several entries; their conditions need not be identical. Equal entries are not always repeated. Entries after “also recorded” stand apart in the source; their conditions may differ. Where two headings read alike, the source gives them in different places.

How the values were obtained:
[1] = target: T1, hVMAT2 (Homo sapiens, UniProt Q05940); conditions: read-out: IC50, VMAT2 binding, cortex; human brain cortex; cited from earlier work
T1 sequence (Q05940 whole entry): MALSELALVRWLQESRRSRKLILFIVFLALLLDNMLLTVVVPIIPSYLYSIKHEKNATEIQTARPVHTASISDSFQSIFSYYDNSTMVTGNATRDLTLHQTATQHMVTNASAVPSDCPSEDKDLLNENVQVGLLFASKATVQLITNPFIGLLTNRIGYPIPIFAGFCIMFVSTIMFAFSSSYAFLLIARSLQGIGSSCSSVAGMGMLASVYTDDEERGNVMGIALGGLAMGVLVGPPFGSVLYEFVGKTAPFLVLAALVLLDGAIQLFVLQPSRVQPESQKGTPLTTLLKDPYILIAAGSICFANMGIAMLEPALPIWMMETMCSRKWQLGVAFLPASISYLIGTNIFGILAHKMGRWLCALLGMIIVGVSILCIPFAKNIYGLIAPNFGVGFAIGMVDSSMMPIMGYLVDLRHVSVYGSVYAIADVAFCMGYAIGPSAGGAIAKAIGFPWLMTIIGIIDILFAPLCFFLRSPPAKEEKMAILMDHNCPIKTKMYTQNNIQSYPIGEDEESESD

[2] = Lipophilicity; type: physicochemical; conditions: noribogaine versus ibogamine
[3] = Pharmacokinetics in mice, estimated free drug concentration in brain; type: in vivo, mouse
[4] = target: T2, hOCT2 (Homo sapiens, UniProt O15244); assay: ASP+ fluorescent substrate uptake inhibition at OCT2; type: cell-based; conditions: read-out: IC50, hOCT2; ASP+ fluorescent substrate
T2 sequence (O15244 1-555): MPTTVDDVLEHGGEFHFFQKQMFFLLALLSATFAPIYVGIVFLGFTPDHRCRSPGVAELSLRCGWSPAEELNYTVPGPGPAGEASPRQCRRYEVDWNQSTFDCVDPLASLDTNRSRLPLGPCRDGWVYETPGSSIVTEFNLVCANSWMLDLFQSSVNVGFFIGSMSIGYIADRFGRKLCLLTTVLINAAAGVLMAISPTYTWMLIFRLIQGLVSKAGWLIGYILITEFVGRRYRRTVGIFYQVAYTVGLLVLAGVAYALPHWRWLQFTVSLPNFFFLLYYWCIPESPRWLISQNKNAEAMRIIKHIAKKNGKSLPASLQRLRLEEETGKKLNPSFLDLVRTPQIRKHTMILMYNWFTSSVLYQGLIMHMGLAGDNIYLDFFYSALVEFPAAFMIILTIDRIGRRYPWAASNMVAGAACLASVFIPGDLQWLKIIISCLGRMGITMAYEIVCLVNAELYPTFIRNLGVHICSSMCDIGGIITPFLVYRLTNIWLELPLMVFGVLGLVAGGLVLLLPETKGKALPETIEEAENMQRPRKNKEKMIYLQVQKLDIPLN

[5] = test system: humans; conditions: top dose of 180 mg, p.o.; cited from earlier work
[6] = test system: mice; assay: Loss of righting reflex; type: in vivo, mouse; conditions: high doses
[7] = target: rat VMAT2 (rVMAT2) (Rattus norvegicus, UniProt Q01827); assay: [3H]5-HT uptake inhibition in rat brain synaptic vesicular fraction; type: biochemical; conditions: read-out: Uptake Inhibition at VMAT2 IC50, [3H]5-HT (rVMAT2); rat brain synaptic vesicles
Sequence of rat VMAT2 (rVMAT2) (Q01827 whole entry): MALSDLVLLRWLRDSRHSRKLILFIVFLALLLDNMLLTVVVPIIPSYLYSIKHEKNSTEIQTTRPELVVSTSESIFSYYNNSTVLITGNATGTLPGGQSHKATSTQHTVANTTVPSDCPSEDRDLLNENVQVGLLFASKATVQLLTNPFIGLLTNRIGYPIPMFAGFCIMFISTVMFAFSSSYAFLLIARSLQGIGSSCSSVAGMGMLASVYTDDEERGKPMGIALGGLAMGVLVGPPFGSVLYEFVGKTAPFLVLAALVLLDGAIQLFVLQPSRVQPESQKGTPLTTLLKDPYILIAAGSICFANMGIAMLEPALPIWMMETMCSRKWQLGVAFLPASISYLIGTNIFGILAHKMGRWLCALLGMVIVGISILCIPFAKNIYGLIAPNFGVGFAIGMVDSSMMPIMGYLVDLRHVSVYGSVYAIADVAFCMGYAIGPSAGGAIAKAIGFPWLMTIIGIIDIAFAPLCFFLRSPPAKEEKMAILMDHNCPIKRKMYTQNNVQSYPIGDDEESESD

[8] = target: SERT (Rattus norvegicus, UniProt P31652); assay: [3H]5-HT release from rat brain synaptosomes via SERT; type: biochemical; conditions: rat brain synaptosomes; for [3H]5-HT Release % Emax via SERT / [3H]5-HT Release EC50 ± SD via SERT: n = 3; for [3H]5-HT Release EC50 ± SD via SERT: active releaser: EC50 < 10 μM and Emax > 30%
Sequence of SERT (Rattus norvegicus, UniProt P31652) (P31652 whole entry): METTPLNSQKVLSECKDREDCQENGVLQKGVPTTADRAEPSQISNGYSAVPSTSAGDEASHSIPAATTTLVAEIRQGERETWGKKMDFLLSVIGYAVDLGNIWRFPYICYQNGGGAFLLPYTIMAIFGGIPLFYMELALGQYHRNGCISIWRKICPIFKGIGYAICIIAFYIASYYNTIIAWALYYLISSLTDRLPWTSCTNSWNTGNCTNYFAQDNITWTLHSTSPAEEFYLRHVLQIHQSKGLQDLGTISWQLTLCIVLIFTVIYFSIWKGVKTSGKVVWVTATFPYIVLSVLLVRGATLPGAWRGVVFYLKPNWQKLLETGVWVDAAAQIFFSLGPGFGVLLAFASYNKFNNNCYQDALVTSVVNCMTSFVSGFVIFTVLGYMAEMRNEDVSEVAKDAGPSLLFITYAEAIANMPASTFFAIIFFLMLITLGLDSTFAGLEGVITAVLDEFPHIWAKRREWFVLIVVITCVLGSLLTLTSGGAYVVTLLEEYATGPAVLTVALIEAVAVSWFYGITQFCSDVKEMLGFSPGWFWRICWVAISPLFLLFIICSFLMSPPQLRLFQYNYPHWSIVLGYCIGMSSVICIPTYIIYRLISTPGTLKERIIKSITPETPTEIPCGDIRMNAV

[9] = target: rVMAT2 (Rattus norvegicus, UniProt Q01827); assay: [3H]DTBZ binding competition in rat brain synaptic vesicles
Sequence of rVMAT2 (Q01827 whole entry): as the sequence (Q01827 whole entry) above

[10] = target: hDAT (Homo sapiens, UniProt Q01959); assay: APP+ fluorescent substrate uptake inhibition in hDAT-HEK cells; type: cell-based; conditions: read-out: IC50, hDAT
Sequence of hDAT (Q01959 whole entry): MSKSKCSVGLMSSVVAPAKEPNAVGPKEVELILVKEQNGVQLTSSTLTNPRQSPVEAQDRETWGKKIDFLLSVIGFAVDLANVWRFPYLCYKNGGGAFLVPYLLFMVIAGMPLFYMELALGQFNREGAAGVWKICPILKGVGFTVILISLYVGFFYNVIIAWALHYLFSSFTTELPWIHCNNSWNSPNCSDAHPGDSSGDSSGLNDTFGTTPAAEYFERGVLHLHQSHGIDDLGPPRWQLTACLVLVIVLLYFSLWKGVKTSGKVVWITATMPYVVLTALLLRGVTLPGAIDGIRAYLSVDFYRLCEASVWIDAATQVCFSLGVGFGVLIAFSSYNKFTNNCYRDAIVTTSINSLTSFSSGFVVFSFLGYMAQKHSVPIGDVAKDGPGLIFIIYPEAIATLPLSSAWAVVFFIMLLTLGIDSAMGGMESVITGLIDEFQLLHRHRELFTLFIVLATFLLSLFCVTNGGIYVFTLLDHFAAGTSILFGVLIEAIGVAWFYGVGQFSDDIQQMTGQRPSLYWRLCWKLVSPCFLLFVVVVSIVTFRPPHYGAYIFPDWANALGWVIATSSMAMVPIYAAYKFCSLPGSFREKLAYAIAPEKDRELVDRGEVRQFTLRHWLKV

[11] = test system: SERT; conditions: SERT-transfected cells; cited from earlier work
[12] = target: T3, rat SERT (rSERT) (Rattus norvegicus, UniProt P31652); assay: [3H]5-HT uptake inhibition in rat brain synaptosomes; type: biochemical; conditions: rat brain synaptosomes
T3 sequence (P31652 whole entry): as the sequence (P31652 whole entry) above

[13] = target: mouse VMAT2 (mVMAT2) (Mus musculus, UniProt Q8BRU6); assay: FFN200 two-photon imaging of VMAT2 function in acute mouse brain slices; type: cell-based; conditions: for Effect on FFN200 uptake / punctate labeling: 2 μM for 30 minutes, FFN200 10 μM, dorsal striatum
Sequence of mouse VMAT2 (mVMAT2) (Q8BRU6 whole entry): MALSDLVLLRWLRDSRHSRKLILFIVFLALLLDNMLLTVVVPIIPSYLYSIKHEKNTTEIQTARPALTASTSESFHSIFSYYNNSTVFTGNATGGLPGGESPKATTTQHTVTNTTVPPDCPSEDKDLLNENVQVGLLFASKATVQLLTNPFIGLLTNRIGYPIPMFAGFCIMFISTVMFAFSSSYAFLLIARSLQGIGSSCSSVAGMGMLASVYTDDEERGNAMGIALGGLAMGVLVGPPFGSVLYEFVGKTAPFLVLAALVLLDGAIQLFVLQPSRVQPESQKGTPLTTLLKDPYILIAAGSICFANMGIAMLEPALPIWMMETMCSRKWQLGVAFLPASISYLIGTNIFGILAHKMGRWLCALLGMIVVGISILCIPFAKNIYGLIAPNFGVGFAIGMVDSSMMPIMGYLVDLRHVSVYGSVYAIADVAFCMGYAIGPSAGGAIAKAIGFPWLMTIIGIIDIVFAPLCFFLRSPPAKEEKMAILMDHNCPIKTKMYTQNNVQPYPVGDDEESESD

[14] = target: T1, hVMAT2; assay: FFN206 fluorescent substrate uptake inhibition in hVMAT2-HEK cells; type: cell-based
[15] = target: VMAT2 (Rattus norvegicus, UniProt Q01827); assay: [3H]5-HT release from rat brain synaptic vesicles via VMAT2; type: biochemical; conditions: for [3H]5-HT Release % Emax via VMAT2: rat brain vesicular fraction, 5-HT control set as Emax = 100%
Sequence of VMAT2 (Q01827 whole entry): as the sequence (Q01827 whole entry) above

[16] = test system: mice; assay: Open field locomotor activity test in mice; type: in vivo, mouse; conditions: s.c.
[17] = test system: other uptake 2 transporters (OCT1, OCT3, PMAT); assay: Fluorescent substrate uptake inhibition at the other uptake 2 transporters; type: cell-based
[18] = test system: mice; assay: Catalepsy bar test in mice; type: in vivo, mouse; conditions: mice, s.c.
[19] = target: T3, rat SERT (rSERT); conditions: cited from earlier work
[20] = target: SERT (Mus musculus, UniProt Q60857); assay: SERTlight two-photon imaging of SERT function in acute mouse brain slices; type: cell-based; conditions: for Effect on SERTlight labeling of 5-HT axons: 2 μM for 30 minutes, SERTlight 10 μM, SNpr, DS, SSp2/3
Sequence of SERT (Mus musculus, UniProt Q60857) (Q60857 whole entry): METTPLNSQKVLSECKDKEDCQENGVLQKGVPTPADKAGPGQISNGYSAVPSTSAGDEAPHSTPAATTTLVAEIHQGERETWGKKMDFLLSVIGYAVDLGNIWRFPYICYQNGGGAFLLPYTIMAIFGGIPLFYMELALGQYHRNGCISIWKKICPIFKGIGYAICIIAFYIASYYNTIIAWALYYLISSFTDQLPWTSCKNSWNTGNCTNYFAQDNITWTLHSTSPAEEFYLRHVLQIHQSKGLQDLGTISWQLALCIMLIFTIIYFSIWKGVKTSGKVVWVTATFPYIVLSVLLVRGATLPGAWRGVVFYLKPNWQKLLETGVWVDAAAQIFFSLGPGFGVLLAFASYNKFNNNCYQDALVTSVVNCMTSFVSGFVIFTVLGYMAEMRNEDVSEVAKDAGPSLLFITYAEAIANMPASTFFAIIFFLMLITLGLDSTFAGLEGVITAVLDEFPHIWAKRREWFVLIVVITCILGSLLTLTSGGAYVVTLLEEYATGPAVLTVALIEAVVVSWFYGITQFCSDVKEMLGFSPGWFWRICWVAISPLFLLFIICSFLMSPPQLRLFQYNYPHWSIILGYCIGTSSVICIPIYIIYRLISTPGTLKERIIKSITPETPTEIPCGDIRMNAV

[21] = target: T4, MAO A (Homo sapiens, UniProt P21397); assay: MAO A activity; type: biochemical; conditions: Figure S16
T4 sequence (P21397 1-527): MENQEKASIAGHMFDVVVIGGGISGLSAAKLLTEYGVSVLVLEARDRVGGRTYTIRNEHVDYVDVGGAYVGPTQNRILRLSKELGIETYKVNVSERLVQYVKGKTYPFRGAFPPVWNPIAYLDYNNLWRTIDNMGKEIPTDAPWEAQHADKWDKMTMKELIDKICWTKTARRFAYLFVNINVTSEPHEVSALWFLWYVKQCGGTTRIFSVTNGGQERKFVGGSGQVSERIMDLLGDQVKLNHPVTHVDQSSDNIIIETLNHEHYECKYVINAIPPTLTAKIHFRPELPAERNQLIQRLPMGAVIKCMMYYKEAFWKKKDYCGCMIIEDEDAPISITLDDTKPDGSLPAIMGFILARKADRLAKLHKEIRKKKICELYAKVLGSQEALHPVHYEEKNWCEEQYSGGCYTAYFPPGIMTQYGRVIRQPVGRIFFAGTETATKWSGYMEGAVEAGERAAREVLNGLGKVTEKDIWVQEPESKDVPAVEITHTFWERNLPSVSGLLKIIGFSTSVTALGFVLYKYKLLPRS

[22] = test system: humans; conditions: after a single treatment; cited from earlier work

CC[C@H]1C[C@H]2C[C@H]3c4[nH]c5ccc(O)cc5c4CCN(C2)[C@@H]13 [noribogaine]
IC50 [1]: 5 µM
Less lipophilic than ibogamine by [2]: 1.75 log D units
Cmax, estimated free brain concentration ([3]; mice, 10 mg/kg, s.c.): ~ 6.6 μM
Cmax, estimated free drug in the brain ([3]; mice, 50 mg/kg, s.c.): 31 µM and > 20 µM
Concentration of free drug in the brain over plasma ([3]; rodents (rats ref 11 and mice, Figure S11)): > 4 fold
IC50 [4]: 6.18 µM
Dose-limiting cardiac effect [5]: cardiac QT interval prolongation
Loss of righting reflex (LORR) [6]: did not observe a loss of righting reflex
IC50 [7]: 1310 nM
[3H]5-HT release from preloaded synaptosomes (qualitative) [8]: No [^3H]5-HT release was observed
[3H]5-HT Release % Emax via SERT [8]: < 30%
[3H]5-HT Release EC50 ± SD via SERT [8]: inactive
[3H]DTBZ displacement [9]: < 20%
IC50 ([9]; read-out: IC50, rVMAT2 ([3H]DTBZ competition)): > 10 µM
IC50 [10]: 6.76 µM
Partial [3H]5-HT release Emax [11]: ~ 30%
IC50 ([12]; read-out: Uptake Inhibition at SERT IC50, [3H]5-HT (rSERT)): 326 nM
IC50 ([12]; read-out: [3H]5-HT Uptake Inhibition IC50 ± SD, SERT, n = 3): 326 ± 47.6 nM
Effect on FFN200 uptake / punctate labeling [13]: strong inhibitory effects; also recorded: completely inhibited FFN200 uptake
IC50 ([13]; read-out: IC50 FFN200 uptake in acute mouse slices, number of puncta per image, dose-response): 160 nM
IC50 ([14]; read-out: IC50, hVMAT2 (uptake inhibition, FFN206), hVMAT2-HEK cells, fluorescent substrate FFN206, n = 4): 570 nM
[3H]5-HT Release % Emax via VMAT2 [15]: 50%
EC50 ([15]; read-out: [3H]5-HT Release EC50 ± SD via VMAT2): 6.48 µM
Locomotion in open field test ([16]; 30 mg/kg): strongly suppressed
Locomotor activity / sedation in open field test ([16]; dose-response): diminished ambulatory behavior
Inhibition at the other uptake 2 transporters examined [17]: no inhibition below 10 μM
Catalepsy in bar test ([18]; high doses 30, 50 and 80 mg/kg): did not induce catalepsy; also recorded: did not show any catalepsy
Catalepsy in bar test ([18]; dose-response): does not result in catalepsy
IC50 ([19]; read-out: IC50, rSERT reported previously in rat synaptosomes): 330 nM
Effect on somatodendritic SERTlight labeling in dorsal raphe ([20]; 2 μM): showed no effect
Effect on SERTlight labeling of 5-HT axons [20]: ablated SERTlight probe uptake; also recorded: completely blocked the SERTlight signal; also recorded: completely inhibited the axonal SERT
Effect on somatodendritic SERTlight labeling in dorsal raphe ([20]; 10 μM): showed no effect
Effect on somatodendritic SERTlight labeling in dorsal raphe ([20]; 30 μM): no apparent effect
Effect on somatodendritic SERTlight labeling in dorsal raphe ([20]; 100 μM): clear inhibition
Inhibitory potency on SERTlight staining in dorsal raphe, dose-response ([20]; 10, 30, 50, and 100 μM): weak inhibitory potency

ibogaine
[3H]5-HT release from preloaded synaptosomes (qualitative) [8]: No [^3H]5-HT release was observed
[3H]5-HT Release % Emax via SERT [8]: < 30%
[3H]5-HT Release EC50 ± SD via SERT [8]: inactive
Effect on FFN200 uptake / punctate labeling [13]: strong inhibitory effects; also recorded: completely inhibited FFN200 uptake
Activity at MAO A [21]: no activity
Remission [22]: 80%
Selectivity hVMAT2 over hSERT ([14]; ratio of IC50 values, cell-based fluorometry): seven-fold more potent at VMAT2
Concentration at which [3H]5-HT release exceeds Emax of 30% ([15]; rat brain synaptic vesicles): > 10 µM
[3H]5-HT Release % Emax via VMAT2 [15]: < 30%
Inhibition at the other uptake 2 transporters examined [17]: no inhibition below 10 μM
Ratio of binding to uptake inhibitory constants at SERT [19]: ~ 1
Effect on SERTlight labeling of 5-HT axons [20]: did not alter probe uptake; also recorded: had no effect on SERTlight labeling
